Reference: PMC12071598, “Piperazine-Substituted Pyranopyridines Exhibit Antiproliferative Activity and Act as Inhibitors of HBV Virion Production” (International Journal of Molecular Sciences, 2025)
Where two headings read alike, the source gives them in different places.

Assays:
hepatitis B virus (HBV) = assay: microbe, parasite or virus in culture; format: cell-based; conditions: for log reduction at 1 µM / log reduction at 10 µM: Hepatitis B virus, 144 h; for Extracellular HBV DNA (Δlog10): 1 µM, 6 days treatment, conditioned medium (virion production)
HeLa = assay: Antiproliferative activity, MTT assay, HeLa; format: cell-based; conditions: Homo sapiens, HeLa cervix carcinoma, 72 h
K562 = assay: Antiproliferative activity, MTT assay, K562; format: cell-based; conditions: Homo sapiens, K562 chronic myeloid leukemia, 72 h
SH-SY5Y = assay: Antiproliferative activity, crystal violet staining, SH-SY5Y; format: cell-based; conditions: Homo sapiens, SH-SY5Y neuroblastoma, 72 h
DU145 [1] = conditions: discussed for DU145; cited from earlier work
SARS-CoV-2 = assay: microbe, parasite or virus in culture; format: cell-based
Influenza A virus = assay: microbe, parasite or virus in culture; format: cell-based, influenza A virus (H1N1)
[2] = Cytotoxicity by MTS assay in MDCK cells; format: cell-based; conditions: dog, read-out: Influenza A Virus CC50
Protocol: Production of influenza A virus (H1N1) stock and its infection of MDCK cells, as well as infection of Vero E6 cells with SARS-CoV-2, were described previously. Cytotoxicity of the compounds towards MDCK and VeroE6 cells was assessed by seeding 18,000 cells/well of […] plates in 0.1 mL DMEM, treating with the compounds for 66 h, and measuring cell viability by MTS assay. As positive controls, oseltamivir and N-hydroxicytidine were used (obtained from Sigma).
The compounds were added at non-toxic concentrations in serum-free DMEM to the respective cells; one hour later, the serial 10-fold dilutions of influenza virus or SARS-CoV-2 were added in serum-free medium, and antiviral activity was determined by the reduction in the infectious titer of the virus by cytopathic action (CPE). Calculation of 50% cytotoxic concentration (CC50) and 50% effective concentration (IC50) was performed by standard methods using Microsoft Excel 5.0 and GraphPad Prism 8 (GraphPad Software Inc., Boston, MA, USA).

HepaRG = assay: Cytotoxicity towards non-tumor differentiated HepaRG cells, MTT; format: cell-based, human; conditions: concentration decreasing number of viable cells by 50%; for IC50: Homo sapiens
A549 = assay: Antiproliferative activity, MTT assay, A549; format: cell-based; conditions: Homo sapiens, A549 lung carcinoma, 72 h
DU145 [3] = assay: Antiproliferative activity, MTT assay, DU145; format: cell-based; conditions: Homo sapiens, DU-145, DU145 prostate carcinoma, 72 h
PV1 = assay: microbe, parasite or virus in culture; format: cell-based, poliovirus type 1; conditions: Enterovirus C, 48 h, read-out: PV1 IC50, µM
NDV = assay: microbe, parasite or virus in culture; format: cell-based, Newcastle disease virus; conditions: avian paramyxovirus 1, 48 h, read-out: NDV IC50, µM
HSV-1 = assay: microbe, parasite or virus in culture; format: cell-based, herpes simplex virus type 1; conditions: Human alphaherpesvirus 1, 48 h, read-out: HSV-1 IC50, µM
VV = assay: microbe, parasite or virus in culture; format: cell-based; conditions: Orthopoxvirus vaccinia, 48 h, read-out: VV IC50, µM
A549 cells = assay: Intracellular ROS assay, DCFH2-DA in A549 cells; format: cell-based; conditions: A549, 10 µM, 72 h
Excerpt: As cell death is often triggered by increased production of reactive oxygen species (ROS), the next step was to evaluate if our compounds act as pro-oxidants. ROS production was accessed using cell-permeable redox sensitive DCFH2-DA dye. […] As one of the main sites of ROS production is mitochondria, we also evaluated their membrane potential during treatment with either DO11-46 or DO11-48. […] Lysosome activation often accompany late stages of apoptosis, which is in good accordance with our data on the induction of caspase3/7 activity.
Pro-oxidant activity of the compounds was studied by quantification of ROS production using a cell-permeable fluorogenic probe 2′,7′-dichlorodihydrofluorescein diacetate (DCFH2-DA). A549 cells were seeded on a 48-well plate at a density of 10,000 cells/well. Twenty-four hours later, the compounds were added to 10 µM concentration in quadruplicate, and the cells were kept for 72 h. As a positive control, A549 cells were treated with 1 mM H2O2 for 2 h prior analysis. Then, media were replaced with the fresh FBS-lacking DMEM supplemented with 25 µM DCFH2-DA. After 45 min incubation, the cells were washed 10 times with 500 µL PBS, resuspended in 200 µL PBS and transferred to a black 96-well plate. The fluorescence intensities (FLIs) were measured using CHAMELEON V microplate reader with excitation at 485 nm and emission at 535 nm.

[4] = read-out: Extracellular HBV DNA (Δlog10)
[5] = read-out: Intracellular Total HBV RNA (Δlog10)
[6] = Severe acute respiratory syndrome coronavirus 2, Vero C1008, read-out: SARS-CoV-2 IC50, µM

Nc1ccn([C@@H]2CS[C@H](CO)O2)c(=O)n1 [3TC, Lamivudine, reference compound]
log reduction at 1 µM (hepatitis B virus (HBV); [4]): 0.93
log reduction at 10 µM (hepatitis B virus (HBV); [4]): 1.04
log reduction at 1 µM (hepatitis B virus (HBV); [5]): < 0.5
log reduction at 10 µM (hepatitis B virus (HBV); [5]): < 0.5

O=c1[nH]cc(F)c(=O)[nH]1 [5-Fluorouracil, reference compound]
IC50 (HeLa): 1.2 ± 0.3 µM
IC50 (K562): 1.3 ± 0.3 µM
IC50 (SH-SY5Y): 1.5 ± 0.2 µM

FC(F)(F)c1ccc(CN2CCNCC2)cc1 [[4-(trifluoromethyl)benzyl]piperazine]
GI50 (DU145 [1]): 1.6 µM

O=c1nc(NO)ccn1[C@@H]1O[C@H](CO)[C@@H](O)[C@H]1O [N-HydroxyC, N-hydroxicytidine, reference compound]
SARS-CoV-2 Δlgmax (SARS-CoV-2): 5.0
IC50 (SARS-CoV-2; read-out: SARS-CoV-2 IC50): 0.5 µM

CCOC(=O)C1=C[C@@H](OC(CC)CC)[C@H](NC(C)=O)[C@@H](N)C1 [Oseltamivir, reference compound]
Influenza A Virus Δlgmax (Influenza A virus): 6.0
IC50 (Influenza A virus; Influenza A virus, MDCK, read-out: Influenza A Virus IC50, µM): 0.02 µM
CC50 at 66 h [2]: > 10 µM

CNC(=O)c1cc(Oc2ccc(NC(=O)Nc3ccc(Cl)c(C(F)(F)F)c3)cc2)ccn1 [Sorafenib, reference compound]
IC50 (SH-SY5Y): 40 ± 10 µM
IC50 (HepaRG): > 100 µM

CC1(C)Cc2c(C#N)c(SCC(N)=O)nc(N3CCNCC3)c2CO1 [DO11-37, 2-[(5-Cyano-3,3-dimethyl-8-piperazin-1-yl-3,4-dihydro-1H-pyrano[3,4-c]pyridin-6-yl)thio]acetamide]
IC50 (A549): 294 ± 35.9 µM
IC50 (HeLa): 133 ± 38 µM
IC50 (DU145 [3]): 225 ± 52.4 µM
IC50 (K562): 91.4 ± 29.6 µM
IC50 (SH-SY5Y): 99.4 ± 21.4 µM
IC50 (HepaRG): 968 ± 87.8 µM
IC50 (µM) HepaRG (HepaRG): almost non-toxic
CC50 at 66 h [2]: 1680 µM
IC50 (SARS-CoV-2; [6]): > 200 µM
IC50 (PV1): > 300 µM
IC50 (NDV): > 300 µM
IC50 (HSV-1): > 300 µM
IC50 (VV): > 300 µM
Extracellular HBV DNA (Δlog10) (hepatitis B virus (HBV)): significantly reduced levels of virion production
log reduction at 1 µM (hepatitis B virus (HBV); [4]): 1.97 ± 0.03
log reduction at 10 µM (hepatitis B virus (HBV); [4]): 2.32 ± 0.16
log reduction at 1 µM (hepatitis B virus (HBV); [5]): < 0.5
log reduction at 10 µM (hepatitis B virus (HBV); [5]): < 0.5

Fc1ccc(C(c2ccc(F)cc2)N2CCNCC2)cc1 [1-bis(4-fluorophenyl)methylpiperazine]
GI50 (DU145 [1]): 1.8 µM

CC1(C)Cc2c(C#N)c(SCc3ccccc3Cl)nc(N3CCNCC3)c2CO1 [DO11-42, 6-[(2-Chlorobenzyl)thio]-3,3-dimethyl-8-piperazin-1-yl-3,4-dihydro-1H-pyrano[3,4-c]pyridine-5-carbonitrile]
IC50 (A549): 7 ± 1.9 µM
IC50 (HeLa): 1.9 ± 0.3 µM
IC50 (DU145 [3]): 1.3 ± 0.2 µM
IC50 (K562): 1.5 ± 0.8 µM
IC50 (SH-SY5Y): 4.5 ± 1.8 µM
IC50 (HepaRG): 24.5 ± 2.8 µM
Influenza A Virus Δlgmax (Influenza A virus): 0.5
CC50 at 66 h [2]: 440 µM
SARS-CoV-2 Δlgmax (SARS-CoV-2): 0
IC50 (SARS-CoV-2; [6]): > 15 µM
IC50 (PV1): > 7.5 µM
IC50 (NDV): > 7.5 µM
IC50 (HSV-1): > 7.5 µM
IC50 (VV): > 7.5 µM
Extracellular HBV DNA (Δlog10) (hepatitis B virus (HBV)): significantly reduced levels of virion production
log reduction at 1 µM (hepatitis B virus (HBV); [4]): 2.52 ± 0.36
log reduction at 10 µM (hepatitis B virus (HBV); [4]): 2.31 ± 0.29
log reduction at 1 µM (hepatitis B virus (HBV); [5]): < 0.5
log reduction at 10 µM (hepatitis B virus (HBV); [5]): 0.53 ± 0.31
ROS generation (A549 cells): significantly increased ROS generation

CC(=O)c1ccc(NC(=O)CSc2nc(N3CCNCC3)c3c(c2C#N)CC(C)(C)OC3)cc1 [DO11-50, N-(4-acetylphenyl)-2-[(5-cyano-3,3-dimethyl-8-piperazin-1-yl-3,4-dihydro-1H-pyrano[3,4-c]pyridin-6-yl)thio]acetamide]
IC50 (A549): 45.8 ± 12.6 µM
IC50 (HeLa): 74.5 ± 3.5 µM
IC50 (DU145 [3]): 26.7 ± 8.4 µM
IC50 (K562): 45.6 ± 20 µM
IC50 (SH-SY5Y): 13.2 ± 4.3 µM
IC50 (HepaRG): 42.4 ± 8.3 µM
Influenza A Virus Δlgmax (Influenza A virus): 0
CC50 at 66 h [2]: 1270 µM
SARS-CoV-2 Δlgmax (SARS-CoV-2): 0
IC50 (SARS-CoV-2; [6]): > 15 µM
IC50 (PV1): > 5 µM
IC50 (NDV): > 5 µM
IC50 (HSV-1): > 5 µM
IC50 (VV): > 5 µM
log reduction at 1 µM (hepatitis B virus (HBV); [4]): < 0.5
log reduction at 10 µM (hepatitis B virus (HBV); [4]): < 0.5
log reduction at 1 µM (hepatitis B virus (HBV); [5]): < 0.5
log reduction at 10 µM (hepatitis B virus (HBV); [5]): < 0.5
